{
  "source": "ChEMBL document CHEMBL1131857",
  "about": "“Quinolizidinyl derivatives of 5,11-dihydro-6H-pyrido[2,3-b][1,4]benzodiazepin-6-one as ligands for muscarinic receptors” (Bioorg Med Chem Lett, 1999)",
  "data": [
    {"target": "T1, Muscarinic acetylcholine receptor M1 (Rattus norvegicus, UniProt P08482)", "T1 sequence (P08482 whole entry)": "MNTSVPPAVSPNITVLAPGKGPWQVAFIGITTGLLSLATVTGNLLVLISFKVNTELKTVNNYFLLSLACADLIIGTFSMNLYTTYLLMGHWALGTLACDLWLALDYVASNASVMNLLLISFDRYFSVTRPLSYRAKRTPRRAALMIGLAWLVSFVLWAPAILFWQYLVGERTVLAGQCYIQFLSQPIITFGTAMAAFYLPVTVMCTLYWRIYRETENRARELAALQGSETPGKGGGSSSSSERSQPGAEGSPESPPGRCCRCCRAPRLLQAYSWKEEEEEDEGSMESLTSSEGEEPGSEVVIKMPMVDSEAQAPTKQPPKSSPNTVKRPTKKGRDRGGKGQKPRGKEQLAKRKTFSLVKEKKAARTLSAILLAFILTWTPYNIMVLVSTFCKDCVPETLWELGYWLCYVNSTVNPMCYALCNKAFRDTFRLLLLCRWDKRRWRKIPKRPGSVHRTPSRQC", "experiment": "Displacement of [3H]pirenzepine binding to muscarinic M1 receptor in brain cortex of rat.", "type": "tissue-based", "units": {"IC50": "nM"}, "values": [
      {"smiles": "O=C1Nc2cccnc2N(C(=S)CC2CCCN3CCCC[C@@H]23)c2ccccc21", "note": "(some centres undefined)", "IC50": 10},
      {"smiles": "O=C1Nc2ccccc2N(C(=O)CC2CCCN3CCCCC23)c2ncccc21", "note": "(centres undefined)", "IC50": 650},
      {"smiles": "O=C1Nc2cccnc2N(C(=O)CNCC2CCCN3CCCCC23)c2ccccc21", "note": "(centres undefined)", "IC50": 28},
      {"smiles": "O=C1Nc2cccnc2N(C(=O)C[C@H]2CCCN3CCCCC23)c2ccccc21", "note": "(some centres undefined)", "IC50": 40},
      {"smiles": "O=C1Nc2cccnc2N(C(=O)C[C@@H]2CCCN3CCCCC23)c2ccccc21", "note": "(some centres undefined)", "IC50": 110},
      {"smiles": "O=C1c2ccccc2-n2c(nc3cccnc32)CN1C[C@@H]1CCCN2CCCC[C@H]12", "IC50": 1200},
      {"smiles": "O=C1Nc2cccnc2N(C(=O)CSCC2CCCN3CCCCC23)c2ccccc21", "note": "(centres undefined)", "IC50": 10},
      {"smiles": "Cc1cc(C(=O)c2ccccc2)ccc1NC(=O)CC1CCCN2CCCC[C@H]12", "note": "(some centres undefined)", "IC50": 8}
    ]},
    {"target": "T2, Muscarinic acetylcholine receptor M2 (Rattus norvegicus, UniProt P10980)", "T2 sequence (P10980 whole entry)": "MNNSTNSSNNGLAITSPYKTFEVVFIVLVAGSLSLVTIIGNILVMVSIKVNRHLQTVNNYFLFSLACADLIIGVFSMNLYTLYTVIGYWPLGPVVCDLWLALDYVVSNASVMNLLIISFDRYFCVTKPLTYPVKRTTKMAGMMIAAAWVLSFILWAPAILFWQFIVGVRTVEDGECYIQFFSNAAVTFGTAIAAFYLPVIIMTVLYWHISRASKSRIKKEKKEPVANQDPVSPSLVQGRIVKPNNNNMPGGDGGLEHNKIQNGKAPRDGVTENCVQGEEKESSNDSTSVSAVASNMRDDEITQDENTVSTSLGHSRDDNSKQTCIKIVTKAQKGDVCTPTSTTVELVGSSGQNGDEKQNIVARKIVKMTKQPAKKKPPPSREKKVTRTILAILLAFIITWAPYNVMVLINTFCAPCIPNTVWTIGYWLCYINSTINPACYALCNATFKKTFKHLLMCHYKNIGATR", "experiment": "Displacement of [3H]methylscopolamine binding to muscarinic M2 receptor in rat heart.", "units": {"IC50": "nM"}, "values": [
      {"smiles": "O=C1Nc2cccnc2N(C(=S)CC2CCCN3CCCC[C@@H]23)c2ccccc21", "note": "(some centres undefined)", "IC50": 760},
      {"smiles": "O=C1Nc2ccccc2N(C(=O)CC2CCCN3CCCCC23)c2ncccc21", "note": "(centres undefined)", "IC50": 6800},
      {"smiles": "O=C1Nc2cccnc2N(C(=O)CNCC2CCCN3CCCCC23)c2ccccc21", "note": "(centres undefined)", "IC50": 1000},
      {"smiles": "O=C1Nc2cccnc2N(C(=O)C[C@H]2CCCN3CCCCC23)c2ccccc21", "note": "(some centres undefined)", "IC50": 1900},
      {"smiles": "O=C1Nc2cccnc2N(C(=O)C[C@@H]2CCCN3CCCCC23)c2ccccc21", "note": "(some centres undefined)", "IC50": 6000},
      {"smiles": "O=C1c2ccccc2-n2c(nc3cccnc32)CN1C[C@@H]1CCCN2CCCC[C@H]12", "IC50": 12000},
      {"smiles": "O=C1Nc2cccnc2N(C(=O)CSCC2CCCN3CCCCC23)c2ccccc21", "note": "(centres undefined)", "IC50": 760},
      {"smiles": "Cc1cc(C(=O)c2ccccc2)ccc1NC(=O)CC1CCCN2CCCC[C@H]12", "note": "(some centres undefined)", "IC50": 2400}
    ]},
    {"target": "Muscarinic acetylcholine receptor M3 (Rattus norvegicus, UniProt P08483)", "sequence (P08483 whole entry)": "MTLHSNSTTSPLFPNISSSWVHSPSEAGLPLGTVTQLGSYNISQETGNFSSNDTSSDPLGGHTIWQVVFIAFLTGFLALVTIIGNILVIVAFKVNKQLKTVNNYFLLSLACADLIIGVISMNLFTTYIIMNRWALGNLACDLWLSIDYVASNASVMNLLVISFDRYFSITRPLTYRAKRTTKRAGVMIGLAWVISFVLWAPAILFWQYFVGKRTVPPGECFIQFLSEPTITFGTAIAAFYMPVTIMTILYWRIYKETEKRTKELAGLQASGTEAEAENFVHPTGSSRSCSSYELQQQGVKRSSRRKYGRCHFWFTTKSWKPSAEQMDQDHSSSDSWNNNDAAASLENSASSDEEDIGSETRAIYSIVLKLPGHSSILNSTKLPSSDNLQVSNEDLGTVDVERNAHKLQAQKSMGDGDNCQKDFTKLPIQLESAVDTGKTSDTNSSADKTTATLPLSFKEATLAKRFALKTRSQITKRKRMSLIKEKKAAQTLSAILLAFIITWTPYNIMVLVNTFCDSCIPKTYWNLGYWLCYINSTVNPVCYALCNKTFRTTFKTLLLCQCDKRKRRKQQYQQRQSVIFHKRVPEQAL", "experiment": "Displacement of [3H]methylscopolamine binding to muscarinic M3 receptor in submaxillary salivary glands of rats.", "type": "tissue-based, Salivary gland", "units": {"IC50": "nM"}, "values": [
      {"smiles": "O=C1Nc2cccnc2N(C(=S)CC2CCCN3CCCC[C@@H]23)c2ccccc21", "note": "(some centres undefined)", "IC50": 760},
      {"smiles": "O=C1Nc2ccccc2N(C(=O)CC2CCCN3CCCCC23)c2ncccc21", "note": "(centres undefined)", "IC50": "> 10000"},
      {"smiles": "O=C1Nc2cccnc2N(C(=O)CNCC2CCCN3CCCCC23)c2ccccc21", "note": "(centres undefined)", "IC50": 800},
      {"smiles": "O=C1Nc2cccnc2N(C(=O)C[C@H]2CCCN3CCCCC23)c2ccccc21", "note": "(some centres undefined)", "IC50": 3500},
      {"smiles": "O=C1Nc2cccnc2N(C(=O)C[C@@H]2CCCN3CCCCC23)c2ccccc21", "note": "(some centres undefined)", "IC50": "> 10000"},
      {"smiles": "O=C1c2ccccc2-n2c(nc3cccnc32)CN1C[C@@H]1CCCN2CCCC[C@H]12", "IC50": "> 10000"},
      {"smiles": "O=C1Nc2cccnc2N(C(=O)CSCC2CCCN3CCCCC23)c2ccccc21", "note": "(centres undefined)", "IC50": 760},
      {"smiles": "Cc1cc(C(=O)c2ccccc2)ccc1NC(=O)CC1CCCN2CCCC[C@H]12", "note": "(some centres undefined)", "IC50": 1300}
    ]}
  ]
}
